Results reported in PubChem BioAssay (NCI).
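How tested: cells in 96-well plates exposed to compound for 48 hours at five concentrations. TGI is the concentration that stops growth completely.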

What was measured:
Assay in all cases: inhibition of tumour cell growth, NCI panel, 48 h
[1] = tested on: M14 melanoma
[2] = tested on: SNB-19 CNS
[3] = tested on: DMS 273 small cell lung
[4] = tested on: NCI-H460 lung
[5] = tested on: HOP-92 NSCLC
[6] = tested on: OVCAR-3 ovarian
[7] = tested on: CAKI-1 renal
[8] = tested on: KM20L2 colon
[9] = tested on: A549 NSCLC
[10] = tested on: UO-31 renal
[11] = tested on: CCRF-CEM leukemia
[12] = tested on: SF-268 CNS
[13] = tested on: SK-OV-3 ovarian
[14] = tested on: COLO 205 colon
[15] = tested on: OVCAR-8 ovarian
[16] = tested on: LXFL 529 NSCLC
[17] = tested on: DMS 114 small cell lung
[18] = tested on: RXF-631 renal
[19] = tested on: XF 498 CNS
[20] = tested on: NCI-H23 lung
[21] = tested on: SNB-75 CNS
[22] = tested on: HT29 colon
[23] = tested on: KM12 colon
[24] = tested on: 786-0 renal
[25] = tested on: LOX IMVI melanoma
[26] = tested on: M19-MEL melanoma
[27] = tested on: SF-295 CNS
[28] = tested on: UACC-257 melanoma
[29] = tested on: A498 renal
[30] = tested on: SW-620 colon
[31] = tested on: U251 CNS
[32] = tested on: IGROV1 ovarian
[33] = tested on: OVCAR-4 ovarian
[34] = tested on: NCI-H226 lung
[35] = tested on: SK-MEL-2 melanoma
[36] = tested on: EKVX NSCLC
[37] = tested on: HCT-15 colon
[38] = tested on: MOLT-4 leukemia
[39] = tested on: HL-60(TB) leukemia
[40] = tested on: SN12C renal
[41] = tested on: HCC-2998 colon
[42] = tested on: UACC-62 melanoma
[43] = tested on: K-562 leukemia
[44] = tested on: SNB-78 CNS
[45] = tested on: SK-MEL-28 melanoma
[46] = tested on: ACHN renal
[47] = tested on: TK-10 renal
[48] = tested on: OVCAR-5 ovarian
[49] = tested on: MALME-3M melanoma
[50] = tested on: SK-MEL-5 melanoma
[51] = tested on: DLD-1 colon
[52] = tested on: RPMI-8226 leukemia
[53] = tested on: HOP-18 NSCLC
[54] = tested on: HCT-116 colon
[55] = tested on: RXF 393 renal
[56] = tested on: SR leukemia
[57] = tested on: SF-539 CNS
[58] = tested on: HOP-62 NSCLC
[59] = tested on: NCI-H522 lung

Measured: TGI

COc1ccc2c(c1)[n+]([O-])c(-c1c(Cl)cccc1Cl)c(N)[n+]2[O-]
61.8 µM: [28]
84 µM: [45]
60.1 µM: [18]
71.6 µM: [14]
63.7 µM: [20]
42.9 µM: [50]
48.4 µM: [49]
not listed: [53] | [54] | [55] | [56] | [57] | [58] | [59]
> 100 µM: all other assays above

CCOc1ccccc1NC(=O)CC1Sc2ccccc2NC1=O (configuration not stated)
86.6 µM: [50]
75.7 µM: [56]
73.7 µM: [59]
76.8 µM: [5]
67.9 µM: [39]
not listed: [17] | [29] | [52]
> 100 µM: all other assays above

COc1ccc(=[O+]C)c2nssc1-2
35.8 µM: [50]
40.2 µM: [26]
48.7 µM: [57]
79.6 µM: [31]
67.7 µM: [42]
71.5 µM: [28]
not listed: [5] | [17] | [37] | [52] | [53]
> 100 µM: all other assays above
